Columns and labels:
[1] = system: TNF-α; test: In vitro LPS stimulation of human PBMC for the release of TNF-α, sandwich ELISA; format: cell-based; settings: FIG. 4C
Method: Human PBMC, at 100,000 cell per well, were stimulated with 1×10^−5 μg/ml LPS E. coli strain 055:B5. Following culture for 24 hours the cell culture supernatants were collected and tested for TNF-α levels by ‘sandwich’ ELISA similarly described above for the IL-2 detection assay.

[2] = system: Mono Mac 6 cells; test: Mono Mac 6 cellular viability by MTS conversion to formazan; format: cell-based, human; settings: Mono Mac 6, 100,000 cells per well, overnight exposure, 3.90625 to 500 μM; FIG. 2, 3
Method: The human monocytic cell line, Mono Mac 6, was treated with concentrations of bacterial quorum sensing molecules 2-heptyl-3-hydroxy-4(1H)quinolone (PQS), N-(3-oxododecanoyl)-L-homoserine lactone (OdDHL) and N-(3-oxohexanoyl)-L-homoserine lactone. Cells at 100,000 per well were exposed to quorum sensing molecules ranging from 3.90625 to 500 μM after which the cells were stimulated with 10 ng/ml E. coli LPS and 5 ng/ml phorbol-myristrate acetate to induce the overnight release of TNF-αinto the culture media. A tetrazolium compound (3-(4,5-dimethylthazol-2-yl)-5-(3-carboxymethoxyphenyl)-2-(4-sulfophenyl)-2H-tetrazolium, inner salt MTS was added to the cells to determine cellular viability after treatment with the quorum sensing molecules. MTS is bioreduced by cells into a formazan product that is soluble in tissue culture medium. The production of formazan was determined by measuring the absorbance of the compound at 450 nm. The results are shown in FIG. 2. A titration of cell numbers was included to correlate to the number of viability cells in the treated wells as set out in the table below.

[3] = system: murine splenocytes; test: ConA mitogen-stimulated proliferation of murine splenocytes ([3H]-thymidine incorporation); format: cell-based, mouse (BALB/c); settings: ConA 1 μg/ml, 100,000 spleen cells, compound about 10 to 0.2 μM; FIG. 1
Method: 1. ConA Mitogen-Stimulated Proliferation of Murine Splenocytes
The concanavalin A (ConA) cell proliferation assay was used to assess the effect of the title compound on T-cell activation and proliferation. Proliferation was assessed by the incorporation of [^3H]-thymidine into DNA. Eight-week-old female BALB/c mice were obtained from Harlan (Bicester, Oxon, UK) and given food and water ad libitum. Splenocyte suspensions were prepared by removing the spleens and placing them into RPMI 1640 medium. The spleens were forced through 70 μm pore size wire gauzes using the plunger from a 5 ml syringe to produce a single cell suspension. The cells were pelleted by centrifugation, and erythrocytes were lysed with 0.017M Tris, 0.144M ammonium chloride buffer, pH 7.2. Leucocytes were washed twice with RPMI 1640 medium with 2% (vol/vol) foetal calf serum (FCS) and resuspended in complete cell culture medium (CTCM) consisting of RPMI 1640 medium with 5% FCS, 2 mM L-glutamine, and 5×10−5 M 2-mercaptoethanol. The title compound was tested at doubling down dilutions ranging from about 10 to 0.2 μM in a final volume of 200 μl of CTCM, containing ConA (Sigma, Poole, UK) at 1 μg/ml and 100,000 spleen cells. […] After the addition of 25 μl of MicroScint-O (Packard) to each well the filters were counted with the Packard TopCount scintillation counter. […]

[4] = system: IL-2; test: IL-2 release from ConA-stimulated human PBMC, sandwich ELISA; format: cell-based; settings: ConA 1 μg/ml, culture supernatant, FIG. 4B
Method: Human peripheral blood mononuclear cells (PBMC) were isolated from heparinised whole blood by buoyant density centrifugation over Histopague 1077 (Sigma, Poole, UK) 600 g for 20 minutes. PBMC harvested from the ‘buffy’ layers were washed and then aliquoted into 96-well plates at 100,000 per well. PBMC were exposed to bacterial quorum sensing molecules (PQS or OdDHL) at concentrations ranging from 0.78125 to 100 μM and then stimulated with 1 μg/ml of Concanavalin A (ConA). After an overnight culture 50 μl of the culture supernatant was removed for the detection of IL-2 released by ‘sandwich’ ELISA. […] Following an 18-hour pulse the human PBMC were harvested onto fibreglass filters which were then counted in the presence of MicroScint-O with the Packard TopCount scintillation counter.
Human leucocytes when stimulated with ConA released the cytokine IL-2. The levels of cytokine produced in the culture supernatants after 24 h were determined in a ‘sandwich’ ELISA. […] Following four washes, the bound biotinylated antibody was detected with 50 μl of a 1:1,000 dilution of Streptavidin-peroxidase (BD Pharmingen, UK). […] The enzyme reaction was stopped with 50 μl of 2.5 M H2SO4 after a development of 10 minutes at room temperature and the development was read at 450 nm with a spectrophotometric 96-well plate reader.

[5] = system: Human peripheral blood mononuclear cells (PBMC); test: In vitro proliferation assay of ConA-stimulated human PBMC (3H-thymidine); format: cell-based; settings: ConA 1 μg/ml, 0.78125 to 100 μM; FIG. 4A
Method: Human peripheral blood mononuclear cells (PBMC) were isolated from heparinised whole blood by buoyant density centrifugation over Histopague 1077 (Sigma, Poole, UK) 600 g for 20 minutes. PBMC harvested from the ‘buffy’ layers were washed and then aliquoted into 96-well plates at 100,000 per well. PBMC were exposed to bacterial quorum sensing molecules (PQS or OdDHL) at concentrations ranging from 0.78125 to 100 μM and then stimulated with 1 μg/ml of Concanavalin A (ConA). After an overnight culture 50 μl of the culture supernatant was removed for the detection of IL-2 released by ‘sandwich’ ELISA. The cells were returned to culture for another 24 hours before 0.25 μCi per well of ^3H-thymidine was added. Following an 18-hour pulse the human PBMC were harvested onto fibreglass filters which were then counted in the presence of MicroScint-O with the Packard TopCount scintillation counter.

| SMILES | TNF-α production at high dose ([1]; LPS-stimulated, high dose) | TNF-α production at low dose ([1]; LPS-stimulated, low dose) | cell viability, as adjudged by MTS conversion [2] | splenocyte proliferation (counts per minute, [3H]-thymidine incorporation) [3] | IL-2 secretion [4] | TNF-α production ([1]; LPS E. coli 055:B5, 24 hours) | human PBMC cell proliferation [5] |
| --- | --- | --- | --- | --- | --- | --- | --- |
| CCCCCCCc1[nH]c2ccccc2c(=O)c1O [PQS, 2-heptyl-3-hydroxy-4(1H)quinolone] | may enhance | no effect | no effect | inhibits | – | – | – |
| CCCCCCCCCC(=O)CC(=O)N[C@H]1CCOC1=O [OdDHL, N-(3-oxododecanoyl)-L-homoserine lactone] | – | – | – | – | inhibits | inhibits | inhibits |
